Assay results taken from ChEMBL document CHEMBL3112450, “Synthesis and in vitro antitumor evaluation of primary amine substituted quinazoline linked benzimidazole” (Bioorg Med Chem Lett, 2014).

System: SF-268
Test: Cytotoxicity against human SF268 cells assessed as cell growth at 10^-5 M after 48 hrs by SRB assay
Type: functional
Settings: SF-268, 48 h, read-out: Activity
In the case of `C=CCn1c(C)nc2cc(Nc3nc(Nc4ccc5nc(C)n(CC=C)c5c4)nc4ccccc34)ccc21`, the growth at 10 µM is reported as 113%.

System: SK-OV-3
Test: Cytotoxicity against human SKOV3 cells assessed as cell growth at 10^-5 M after 48 hrs by SRB assay
Type: functional
Settings: SK-OV-3, 48 h, read-out: Activity
Compound `C=CCn1c(C)nc2cc(Nc3nc(Nc4ccc5nc(C)n(CC=C)c5c4)nc4ccccc34)ccc21` has a growth at 10 µM of 104%.

System: DU-145
Test: Cytotoxicity against human DU145 cells assessed as cell growth at 10^-5 M after 48 hrs by SRB assay
Type: functional
Settings: DU-145, 48 h, read-out: Activity
In the case of `C=CCn1c(C)nc2cc(Nc3nc(Nc4ccc5nc(C)n(CC=C)c5c4)nc4ccccc34)ccc21`, the growth at 10 µM is reported as 115%.

System: SN12C
Test: Cytotoxicity against human SN12C cells assessed as cell growth at 10^-5 M after 48 hrs by SRB assay
Type: functional
Settings: read-out: Activity
`C=CCn1c(C)nc2cc(Nc3nc(Nc4ccc5nc(C)n(CC=C)c5c4)nc4ccccc34)ccc21` gave a growth at 10 µM of 96.5%.

System: SW-620
Test: Cytotoxicity against human SW620 cells assessed as cell growth at 10^-5 M after 48 hrs by SRB assay
Type: functional
Settings: SW-620, 48 h, read-out: Activity
For `C=CCn1c(C)nc2cc(Nc3nc(Nc4ccc5nc(C)n(CC=C)c5c4)nc4ccccc34)ccc21`, the growth at 10 µM was 106%.

System: SK-MEL-5
Test: Cytotoxicity against human SK-MEL-5 cells assessed as cell growth at 10^-5 M after 48 hrs by SRB assay
Type: functional
Settings: SK-MEL-5, 48 h, read-out: Activity
For `C=CCn1c(C)nc2cc(Nc3nc(Nc4ccc5nc(C)n(CC=C)c5c4)nc4ccccc34)ccc21`, the growth at 10 µM was 99.7%.

System: HOP-62
Test: Cytotoxicity against human HOP62 cells assessed as cell growth at 10^-5 M after 48 hrs by SRB assay
Type: functional
Settings: HOP-62, 48 h, read-out: Activity
With `C=CCn1c(C)nc2cc(Nc3nc(Nc4ccc5nc(C)n(CC=C)c5c4)nc4ccccc34)ccc21` the growth at 10 µM was 101%.

System: PC-3
Test: Cytotoxicity against human PC3 cells assessed as cell growth at 10^-5 M after 48 hrs by SRB assay
Type: functional
Settings: PC-3, 48 h, read-out: Activity
With `C=CCn1c(C)nc2cc(Nc3nc(Nc4ccc5nc(C)n(CC=C)c5c4)nc4ccccc34)ccc21` the growth at 10 µM was 95.8%.

System: HCT-15
Test: Cytotoxicity against human HCT15 cells assessed as cell growth at 10^-5 M after 48 hrs by SRB assay
Type: functional
Settings: HCT-15, 48 h, read-out: Activity
With `C=CCn1c(C)nc2cc(Nc3nc(Nc4ccc5nc(C)n(CC=C)c5c4)nc4ccccc34)ccc21` the growth at 10 µM was 107%.

System: HOP-92
Test: Cytotoxicity against human HOP92 cells assessed as cell growth at 10^-5 M after 48 hrs by SRB assay
Type: functional
Settings: HOP-92, 48 h, read-out: Activity
In the case of `C=CCn1c(C)nc2cc(Nc3nc(Nc4ccc5nc(C)n(CC=C)c5c4)nc4ccccc34)ccc21`, the growth at 10 µM is reported as 79.8%.

System: LOX IMVI
Test: Cytotoxicity against human LOXIMVI cells assessed as cell growth at 10^-5 M after 48 hrs by SRB assay
Type: functional
Settings: read-out: Activity
With `C=CCn1c(C)nc2cc(Nc3nc(Nc4ccc5nc(C)n(CC=C)c5c4)nc4ccccc34)ccc21` the growth at 10 µM was 93.3%.

System: SR
Test: Cytotoxicity against human SR cells assessed as cell growth at 10^-5 M after 48 hrs by SRB assay
Type: functional
Settings: read-out: Activity
For `C=CCn1c(C)nc2cc(Nc3nc(Nc4ccc5nc(C)n(CC=C)c5c4)nc4ccccc34)ccc21`, the growth at 10 µM was 106%.

System: SK-MEL-28
Test: Cytotoxicity against human SK-MEL-28 cells assessed as cell growth at 10^-5 M after 48 hrs by SRB assay
Type: functional
Settings: SK-MEL-28, 48 h, read-out: Activity
Compound `C=CCn1c(C)nc2cc(Nc3nc(Nc4ccc5nc(C)n(CC=C)c5c4)nc4ccccc34)ccc21` has a growth at 10 µM of 106%.

System: RPMI-8226
Test: Cytotoxicity against human RPMI8226 cells assessed as cell growth at 10^-5 M after 48 hrs by SRB assay
Type: functional
Settings: RPMI-8226, 48 h, read-out: Activity
Work on `C=CCn1c(C)nc2cc(Nc3nc(Nc4ccc5nc(C)n(CC=C)c5c4)nc4ccccc34)ccc21` yielded a growth at 10 µM of 98.8%.

System: TK-10
Test: Cytotoxicity against human TK10 cells assessed as cell growth at 10^-5 M after 48 hrs by SRB assay
Type: functional
Settings: TK-10, 48 h, read-out: Activity
Work on `C=CCn1c(C)nc2cc(Nc3nc(Nc4ccc5nc(C)n(CC=C)c5c4)nc4ccccc34)ccc21` yielded a growth at 10 µM of 130%.

System: ACHN
Test: Cytotoxicity against human ACHN cells assessed as cell growth at 10^-5 M after 48 hrs by SRB assay
Type: functional
Settings: read-out: Activity
`C=CCn1c(C)nc2cc(Nc3nc(Nc4ccc5nc(C)n(CC=C)c5c4)nc4ccccc34)ccc21` showed a growth at 10 µM of 104%.

System: NCI-H23
Test: Cytotoxicity against human NCI-H23 cells assessed as cell growth at 10^-5 M after 48 hrs by SRB assay
Type: functional
Settings: NCI-H23, 48 h, read-out: Activity
For `C=CCn1c(C)nc2cc(Nc3nc(Nc4ccc5nc(C)n(CC=C)c5c4)nc4ccccc34)ccc21`, the growth at 10 µM was 94.2%.

System: 786-0
Test: Cytotoxicity against human 786-0 cells assessed as cell growth at 10^-5 M after 48 hrs by SRB assay
Type: functional
Settings: 786-0, 48 h, read-out: Activity
`C=CCn1c(C)nc2cc(Nc3nc(Nc4ccc5nc(C)n(CC=C)c5c4)nc4ccccc34)ccc21` showed a growth at 10 µM of 113%.

System: RXF 393
Test: Cytotoxicity against human RXF393 cells assessed as cell growth at 10^-5 M after 48 hrs by SRB assay
Type: functional
Settings: RXF 393, 48 h, read-out: Activity
With `C=CCn1c(C)nc2cc(Nc3nc(Nc4ccc5nc(C)n(CC=C)c5c4)nc4ccccc34)ccc21` the growth at 10 µM was 124%.

System: COLO 205
Test: Cytotoxicity against human COLO205 cells assessed as cell growth at 10^-5 M after 48 hrs by SRB assay
Type: functional
Settings: COLO 205, 48 h, read-out: Activity
`C=CCn1c(C)nc2cc(Nc3nc(Nc4ccc5nc(C)n(CC=C)c5c4)nc4ccccc34)ccc21` showed a growth at 10 µM of 108%.

System: SK-MEL-2
Test: Cytotoxicity against human SK-MEL-2 cells assessed as cell growth at 10^-5 M after 48 hrs by SRB assay
Type: functional
Settings: SK-MEL-2, 48 h, read-out: Activity
`C=CCn1c(C)nc2cc(Nc3nc(Nc4ccc5nc(C)n(CC=C)c5c4)nc4ccccc34)ccc21` showed a growth at 10 µM of 121%.

System: CCRF-CEM
Test: Cytotoxicity against human CCRF-CEM cells assessed as cell growth at 10^-5 M after 48 hrs by SRB assay
Type: functional
Settings: read-out: Activity
Work on `C=CCn1c(C)nc2cc(Nc3nc(Nc4ccc5nc(C)n(CC=C)c5c4)nc4ccccc34)ccc21` yielded a growth at 10 µM of 94.8%.

System: A498
Test: Cytotoxicity against human A498 cells assessed as cell growth at 10^-5 M after 48 hrs by SRB assay
Type: functional
Settings: A498, 48 h, read-out: Activity
With `C=CCn1c(C)nc2cc(Nc3nc(Nc4ccc5nc(C)n(CC=C)c5c4)nc4ccccc34)ccc21` the growth at 10 µM was 125%.

System: HL-60(TB)
Test: Cytotoxicity against human HL-60(TB) cells assessed as cell growth at 10^-5 M after 48 hrs by SRB assay
Type: functional
Settings: HL-60, 48 h, read-out: Activity
For `C=CCn1c(C)nc2cc(Nc3nc(Nc4ccc5nc(C)n(CC=C)c5c4)nc4ccccc34)ccc21`, the growth at 10 µM was 84%.

System: NCI-H322M
Test: Cytotoxicity against human NCI-H322M cells assessed as cell growth at 10^-5 M after 48 hrs by SRB assay
Type: functional
Settings: read-out: Activity
For `C=CCn1c(C)nc2cc(Nc3nc(Nc4ccc5nc(C)n(CC=C)c5c4)nc4ccccc34)ccc21`, the growth at 10 µM was 109%.

System: HT-29
Test: Cytotoxicity against human HT-29 cells assessed as cell growth at 10^-5 M after 48 hrs by SRB assay
Type: functional
Settings: HT-29, 48 h, read-out: Activity
Compound `C=CCn1c(C)nc2cc(Nc3nc(Nc4ccc5nc(C)n(CC=C)c5c4)nc4ccccc34)ccc21` has a growth at 10 µM of 103%.

System: Malme-3M
Test: Cytotoxicity against human MALME-3M cells assessed as cell growth at 10^-5 M after 48 hrs by SRB assay
Type: functional
Settings: read-out: Activity
`C=CCn1c(C)nc2cc(Nc3nc(Nc4ccc5nc(C)n(CC=C)c5c4)nc4ccccc34)ccc21` gave a growth at 10 µM of 94.5%.

System: T47D
Test: Cytotoxicity against human T47D cells assessed as cell growth at 10^-5 M after 48 hrs by SRB assay
Type: functional
Settings: read-out: Activity
Compound `C=CCn1c(C)nc2cc(Nc3nc(Nc4ccc5nc(C)n(CC=C)c5c4)nc4ccccc34)ccc21` has a growth at 10 µM of 96%.

System: K562
Test: Cytotoxicity against human K562 cells assessed as cell growth at 10^-5 M after 48 hrs by SRB assay
Type: functional
Settings: K562, 48 h, read-out: Activity
Compound `C=CCn1c(C)nc2cc(Nc3nc(Nc4ccc5nc(C)n(CC=C)c5c4)nc4ccccc34)ccc21` has a growth at 10 µM of 102%.

System: not listed separately
Test: Cytotoxicity against human Hs578T cells assessed as cell growth at 10^-5 M after 48 hrs by SRB assay
Type: functional
Settings: Hs-578T, read-out: Activity
In the case of `C=CCn1c(C)nc2cc(Nc3nc(Nc4ccc5nc(C)n(CC=C)c5c4)nc4ccccc34)ccc21`, the growth at 10 µM is reported as 100%.

System: SF-539
Test: Cytotoxicity against human SF539 cells assessed as cell growth at 10^-5 M after 48 hrs by SRB assay
Type: functional
Settings: SF-539, 48 h, read-out: Activity
Compound `C=CCn1c(C)nc2cc(Nc3nc(Nc4ccc5nc(C)n(CC=C)c5c4)nc4ccccc34)ccc21` has a growth at 10 µM of 98.6%.

System: OVCAR-8
Test: Cytotoxicity against human OVCAR8 cells assessed as cell growth at 10^-5 M after 48 hrs by SRB assay
Type: functional
Settings: OVCAR-8, 48 h, read-out: Activity
Compound `C=CCn1c(C)nc2cc(Nc3nc(Nc4ccc5nc(C)n(CC=C)c5c4)nc4ccccc34)ccc21` has a growth at 10 µM of 98.9%.

System: BT-549
Test: Cytotoxicity against human BT549 cells assessed as cell growth at 10^-5 M after 48 hrs by SRB assay
Type: functional
Settings: BT-549, 48 h, read-out: Activity
In the case of `C=CCn1c(C)nc2cc(Nc3nc(Nc4ccc5nc(C)n(CC=C)c5c4)nc4ccccc34)ccc21`, the growth at 10 µM is reported as 106%.

System: A549
Test: Cytotoxicity against human A549 cells assessed as cell growth at 10^-5 M after 48 hrs by SRB assay
Type: functional
Settings: A549, 48 h, read-out: Activity
Compound `C=CCn1c(C)nc2cc(Nc3nc(Nc4ccc5nc(C)n(CC=C)c5c4)nc4ccccc34)ccc21` has a growth at 10 µM of 96.3%.

System: not listed separately
Test: Cytotoxicity against human OVCAR4 cells assessed as cell growth at 10^-5 M after 48 hrs by SRB assay
Type: functional
Settings: OVCAR-4, 48 h, read-out: Activity
In the case of `C=CCn1c(C)nc2cc(Nc3nc(Nc4ccc5nc(C)n(CC=C)c5c4)nc4ccccc34)ccc21`, the growth at 10 µM is reported as 99.5%.

System: OVCAR-3
Test: Cytotoxicity against human OVCAR3 cells assessed as cell growth at 10^-5 M after 48 hrs by SRB assay
Type: functional
Settings: OVCAR-3, 48 h, read-out: Activity
`C=CCn1c(C)nc2cc(Nc3nc(Nc4ccc5nc(C)n(CC=C)c5c4)nc4ccccc34)ccc21` showed a growth at 10 µM of 108%.

System: CAKI-1
Test: Cytotoxicity against human Caki1 cells assessed as cell growth at 10^-5 M after 48 hrs by SRB assay
Type: functional
Settings: CAKI-1, 48 h, read-out: Activity
Compound `C=CCn1c(C)nc2cc(Nc3nc(Nc4ccc5nc(C)n(CC=C)c5c4)nc4ccccc34)ccc21` has a growth at 10 µM of 101%.

System: SNB-75
Test: Cytotoxicity against human SNB75 cells assessed as cell growth at 10^-5 M after 48 hrs by SRB assay
Type: functional
Settings: SNB-75, 48 h, read-out: Activity
Work on `C=CCn1c(C)nc2cc(Nc3nc(Nc4ccc5nc(C)n(CC=C)c5c4)nc4ccccc34)ccc21` yielded a growth at 10 µM of 90.8%.
